The values that follow come from patent US12433876B2, “Septin inhibitors for treatment of cancers” (UNIVERSITY OF ROCHESTER, priority 2019, dated 2025).

The subject of assay [1] is JIMT-1 breast cancer cells. Kind of assay: RNA-Seq whole transcriptome analysis, JIMT-1. It counts as cell-based, human. As to conditions: 10 nM Afatinib, 1 μM UR214-9.
A further assay deals with HE4. The assay can be described thus: HE4 ELISA, secreted and intracellular levels. The class given is cell-based, human. The method, then:
Cell lines, Culture, and Reagents. Cells were maintained in either DMEM (SKOV-3, KLE, OVCAR-3, OVCAR8-C5 and IGROV-1) or RPMI-1640 (ECC-1 and HCH-1), supplemented with 10% fetal calf serum (or 20% for OVCAR-3), penicillin (100 units/mL), and streptomycin (100 μg/mL) at 37° C. with 5% CO2 in a humidified incubator. Antibodies were purchased from Abcam (septin-2; ab179436) and Cell Signaling Technology; ERK (9102), p-ERK (4370), -actin (3700), u-Tubulin (2144), EGFR (4267) and HER2 (4290). FCF was purchased from Abcam. All other chemicals were from Sigma Aldrich. Synthesis of Derivaties. […] The reaction was monitored using thin-layer chromatography plates with DCM-MeOH or pure ethyl acetate as eluent. Spots were monitored in a UV chamber. The reaction mixture, upon completion of the reaction, was poured into wet ice mixture and triturated, then the separated solid was filtered by vacuum. The product was washed with hexane, followed by diethyl ether, and was dried under vacuum. The compounds were characterized by spectrophotometric techniques. Quantitative Real-Time PCR. The indicated cell lines were transfected with siRNA targeting septin-2 or non-targeting control siRNA (Santa Cruz Biotechnology: sc-37007 or sc-40936) using Lipofectamine 3000 (Invitrogen). Tri reagent and Direct-zol kit (Zymo Research) were used to lyse and isolate total RNA. Reverse transcription was performed using iScript cDNA synthesis kit (BioRad), both following the manufacturer's recommendations. Quantitative real-time PCR was conducted using QuantStudio 12 K Flex Real-Time PCR System (ABI) and the Taqman Gene Expression Assay (ABI) consisting of the FAM-labeled probes as follows: SEPT2 (Hs01565417_ml); WFDC2 (Hs00899484_ml); TBP (Hs00427620_ml) or B2M (Hs00187842_ml), which was used as reference for normalization. Cell Viability, Proliferation and Apoptosis Assay. Cell viability, proliferation, and cellular apoptosis were measured using the MTS (Promega), BrdU cell proliferation (Cell Signaling Technology), and Caspase-Glo 3/7 apoptosis detection (Promega) assays, following the respective manufacturer's recommendations with suitable modification. Enzyme-Linked Immunosorbent Assay (ELISA) and Immunoblotting. Cells were maintained overnight in the culture media described above. […] Following the treatment, cell lysates and supernatants were collected and subjected to HE4 assay (Human HE4 Quantikine ELISA Kit, R&D Systems). The amount of HE4 in supernatant was normalized to the protein concentration of matching cell lysate. The levels of HER2 were determined by Human Total ErbB2/Her2 DuoSet IC ELISA (R&D systems. Wester blot analysis was conducted using the protocol previously published (see Kim, K. K. et al. Tetrathiomolybdate inhibits mitochondrial complex IV and mediates degradation of hypoxia-inducible factor-1alpha in cancer cells. Sci. Rep. 5, 14296, 2015). Data Acquisition and Statistical Analysis. Gene expression profiling of septins, comparing microdissected normal ovarian stroma (N=8) against that of tumor stroma samples (N=31) from high grade serous ovarian cancer patients, was obtained from Mixed Ovarian Cancer (CAFs)-Wong-77-u133p2 data-set through ‘R2: Genomics Analysis and Visualization Platform (http://r2/am/n1). […] Survival curves between septin high and low population and their statistical significance were analyzed using GraphPad Prism software (Mantel-Cox test). […]
(ELISA stands for enzyme-linked immunosorbent assay.)

Turning to `O=C(Nc1cc(Cl)nc(Cl)c1)Nc1cccc(SC(F)(F)F)c1F` [UR214-9], in assay [1], the “dysregulated genes, down” value was determined as 4 and the “dysregulated genes, up” value was 7.
As to `O=C(Nc1ccccc1)Nc1ccnc(Cl)c1` [FCF, N-(2-chloro-4-pyridyl)-N′-phenylurea, reference compound], the HE4 secretion result in the assay with HE4 (ECC-1 and HCH-1 cells, 5 hours) was “dose-dependent”. Also, in the assay with HE4 (OVCAR8-C5, 300 μM for 7 h), the HE4 secretion entry is “decrease in HE4 secretion” and the “intracellular levels of HE4” value is on record as “marginal increase”.
